“And” between values parts separate entries of the source, which are not always exact repeats. Identical values can stand only once. Like-named read-outs stand apart in the source and are kept apart here. Ends that are not written are not given here.
Assays:
[1] = system: Mycobacterium tuberculosis MDR (clinically isolated multidrug resistant strain); details: MDR (clinically isolated multidrug resistant strain, 24 h)
[2] = not given; remark: listed apart in the source
[3] = system: Mycobacterium tuberculosis MDR (clinically isolated multidrug resistant strain); details: literature value ref Rastogi, et al., 1996 [55]; cited from earlier work

Compound: FWGALAKGALKLIPSLFSSFSKKD [Pin2, Pandinin 2, reference compound]
- MIC Mycobacterium tuberculosis MDR [1]: 33.1 µM

Compound: FWGALAKGALKLIGSLFSSFSKKD [Pin2 [G]]
- MIC Mycobacterium tuberculosis MDR [1]: 18.7 µM
- maximum alpha-helical structure: 60%
- alpha-helical structure in absence of TFE [2]: 20%

Compound: FWGLKGLKKFSKKL [Pin2 [14]]
- MIC Mycobacterium tuberculosis MDR [1]: 6 ± 1.8 µM

Compound: CO[C@H]1/C=C/O[C@@]2(C)Oc3c(C)c(O)c4c(O)c(c(/C=N/N5CCN(C)CC5)c(O)c4c3C2=O)NC(=O)/C(C)=C\C=C\[C@H](C)[C@H](O)[C@@H](C)[C@@H](O)[C@@H](C)[C@H](OC(C)=O)[C@@H]1C [Rifampicin]
- MIC Mycobacterium tuberculosis MDR [3]: 32 µg/mL and 38.9 µM

Compound: CC[C@@H](CO)NCCN[C@@H](CC)CO [Ethambutol]
- MIC Mycobacterium tuberculosis MDR [3]: 20 µg/mL and 97 µM

Compound: FWGALAKGALKLIGPGSLFSSFSKKD [Pin2 [GPG]]
- maximum alpha-helical structure: 60%

Compound: FWGLKGLKGPGKFSKKL [Pin2 [17]]
- MIC Mycobacterium tuberculosis MDR [1]: 14.8 ± 5.2 µM
